In article PMC11062899, “De novo development of small cyclic peptides that are orally bioavailable” (Nature Chemical Biology, 2023):
Where “and” joins values, the source holds several entries; their conditions need not be identical. Identical values can stand only once. Like-named read-outs stand apart in the source and are kept apart here.

Experiments:
[1] = Passive artificial membrane permeability (PAMPA);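 on Permeability% Average: top well sample relative to theoretical equilibrium sample by TIC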
human α-thrombin = human α-thrombin (Homo sapiens, UniProt P00734); test: Protease inhibition, Ki for human α-thrombin (fluorogenic substrate Z-Gly-Gly-Arg-AMC); assay type: biochemical; conditions: for Human alpha thrombin inhibition, slope normalized to DMSO: replicates R1-R3
Experimental: (§1) The inhibition constants (Ki) of cyclic peptides were calculated by measuring thrombin inhibition in the presence of different concentrations of the cyclic peptides. […] Human α-thrombin (Molecular Innovations) and rat α-thrombin (Molecular Innovations) were used at final concentrations of 2 nM and 3 nM, respectively, and fluorogenic substrate (Z-Gly-Gly-Arg-AMC, Bachem) was used at a concentration of 50 μM. Enzymatic activity was determined by measuring fluorescent gain on a Tecan Infinite M200 Pro microplate reader (excitation: 360 nm, emission: 465 nm) or a PHERAstar FSX microplate reader (excitation: 380 nm, emission: 440 nm) for 30 min at 25 °C with a fluorescent readout every 3 min. The two instruments were controlled with Tecan Infinite M200 Pro instrument software (iControl, version 1.12) and PHERAstar FSX software (version 5.70, edition 8), respectively. Protease inhibition was calculated by comparing the enzymatic activity to a control without cyclic peptide.
(§2) Half maximal inhibitory concentration (IC50) values were determined using a four-parameter logistic regression model in GraphPad Prism 9 to fit sigmoidal curves to the acquired data points according to equation (2) below.2 y=b+a−b/1+10^(logIC50−x)p where a and b represent the measured inhibition maximum and minimum, respectively; x is the logarithm of peptide concentration; y is the thrombin activity compared to a control without the cyclic peptide; and p is the Hill coefficient.
(§3) Ki values were calculated using the IC50 and the Cheng–Prusoff equation (equation (3)).3 Ki=IC50/1+S0/Km where Km is the Michaelis–Menten constant of the enzyme for the substrate used in the assay, and [S]0 is the initial substrate concentration.

rat α-thrombin = biological target: T1, rat α-thrombin (Rattus norvegicus, UniProt P18292); test: Protease inhibition, Ki for rat α-thrombin (fluorogenic substrate Z-Gly-Gly-Arg-AMC); assay type: biochemical; conditions: for Rat alpha thrombin inhibition, slope normalized to DMSO: replicates R1-R3
T1 construct: rat α-thrombin (Molecular Innovations) were used at final concentrations of 2 nM and 3 nM; purchased Molecular Innovations
Experimental: as §1, §2, §3

[2] = peptide concentration 1.00E+02 uM
[3] = peptide concentration 1.19E-05 uM
[4] = peptide concentration 1.22E-02 uM
[5] = peptide concentration 1.25E+01 uM
[6] = peptide concentration 1.53E-03 uM
[7] = peptide concentration 1.56E+00 uM
[8] = peptide concentration 1.91E-04 uM
[9] = peptide concentration 1.95E-01 uM
[10] = peptide concentration 2.38E-05 uM
[11] = peptide concentration 2.44E-02 uM
[12] = peptide concentration 2.50E+01 uM
[13] = peptide concentration 3.05E-03 uM
[14] = peptide concentration 3.12E+00 uM
[15] = peptide concentration 3.81E-04 uM
[16] = peptide concentration 3.91E-01 uM
[17] = peptide concentration 4.77E-05 uM
[18] = peptide concentration 4.88E-02 uM
[19] = peptide concentration 5.00E+01 uM
[20] = peptide concentration 6.10E-03 uM
[21] = peptide concentration 6.25E+00 uM
[22] = peptide concentration 7.63E-04 uM
[23] = peptide concentration 7.81E-01 uM
[24] = peptide concentration 9.54E-05 uM
[25] = peptide concentration 9.77E-02 uM

PAMPA permeability: % permeability ([1]; 50 μM, 12–18 h, acceptor concentration relative to equilibrium): 70 ± 22%
Permeability% (single replicates R1–R3) ([1]; 50 μM, 13 h (Fig. 5d)): 83.98% and 44.59% and 81.97%
Permeability% Average ([1]; 50 μM, 13 h (Fig. 5d)): 70.2%
Papp at 50 μM ([1]; PAMPA, pH 7.4): 11.2 ×10⁻⁶ cm/s
Ki (human α-thrombin; average of R1-R3, read-out: Human alpha thrombin inhibition, Ki Average): 321 nM
Human alpha thrombin inhibition, slope normalized to DMSO (human α-thrombin; [2]): 8.6 and 8.9 and 9.5
Human alpha thrombin inhibition, slope normalized to DMSO (human α-thrombin; [3]): 104.7 and 99.7 and 99.1
Human alpha thrombin inhibition, slope normalized to DMSO (human α-thrombin; [4]): 46.3 and 101.7 and 85.0
Human alpha thrombin inhibition, slope normalized to DMSO (human α-thrombin; [5]): 5.3 and 13.8 and 11.9
Human alpha thrombin inhibition, slope normalized to DMSO (human α-thrombin; [6]): 49.9 and 105.6 and 101.7
Human alpha thrombin inhibition, slope normalized to DMSO (human α-thrombin; [7]): 36.6 and 35.2 and 35.3
Human alpha thrombin inhibition, slope normalized to DMSO (human α-thrombin; [8]): 98.2 and 106.9 and 104.5
Human alpha thrombin inhibition, slope normalized to DMSO (human α-thrombin; [9]): 49.0 and 78.5 and 77.7
Human alpha thrombin inhibition, slope normalized to DMSO (human α-thrombin; [10]): 110.3 and 103.8 and 102.6
Human alpha thrombin inhibition, slope normalized to DMSO (human α-thrombin; [11]): 87.9 and 84.7 and 102.8
Human alpha thrombin inhibition, slope normalized to DMSO (human α-thrombin; [12]): 10.1 and 9.5 and 12.3
Human alpha thrombin inhibition, slope normalized to DMSO (human α-thrombin; [13]): 53.7 and 99.4 and 62.7
Human alpha thrombin inhibition, slope normalized to DMSO (human α-thrombin; [14]): 11.6 and 29.8 and 12.4
Human alpha thrombin inhibition, slope normalized to DMSO (human α-thrombin; [15]): 68.4 and 103.9 and 101.2
Human alpha thrombin inhibition, slope normalized to DMSO (human α-thrombin; [16]): 64.4 and 65.7 and 57.7
Human alpha thrombin inhibition, slope normalized to DMSO (human α-thrombin; [17]): 106.6 and 102.8 and 103.1
Human alpha thrombin inhibition, slope normalized to DMSO (human α-thrombin; [18]): 55.2 and 93.5 and 76.8
Human alpha thrombin inhibition, slope normalized to DMSO (human α-thrombin; [19]): 11.6 (2×) and 7.0
Human alpha thrombin inhibition, slope normalized to DMSO (human α-thrombin; [20]): 92.4 and 103.3 and 95.4
Human alpha thrombin inhibition, slope normalized to DMSO (human α-thrombin; [21]): 8.5 and 19.8 and 17.9
Human alpha thrombin inhibition, slope normalized to DMSO (human α-thrombin; [22]): 104.5 and 110.5 and 71.2
Human alpha thrombin inhibition, slope normalized to DMSO (human α-thrombin; [23]): 53.0 and 40.3 and 48.0
Human alpha thrombin inhibition, slope normalized to DMSO (human α-thrombin; [24]): 104.5 and 106.6 and 99.3
Human alpha thrombin inhibition, slope normalized to DMSO (human α-thrombin; [25]): 84.9 and 80.9 and 75.3
IC50 (human α-thrombin; single replicates R1-R3, read-out: Human alpha thrombin inhibition, IC50): 141 nM and 513 nM and 595 nM
Ki (rat α-thrombin; average of R1-R3, read-out: Rat alpha thrombin inhibition, Ki Average): 104 nM
Rat alpha thrombin inhibition, slope normalized to DMSO (rat α-thrombin; [2]): 11.1 and 8.8 and 6.3
Rat alpha thrombin inhibition, slope normalized to DMSO (rat α-thrombin; [3]): 97.9 and 89.1 and 104.7
Rat alpha thrombin inhibition, slope normalized to DMSO (rat α-thrombin; [4]): 95.5 and 96.6 and 90.7
Rat alpha thrombin inhibition, slope normalized to DMSO (rat α-thrombin; [5]): 7.6 and 6.9 and 7.3
Rat alpha thrombin inhibition, slope normalized to DMSO (rat α-thrombin; [6]): 101.7 and 97.0 and 102.3
Rat alpha thrombin inhibition, slope normalized to DMSO (rat α-thrombin; [7]): 15.7 and 15.6 and 13.6
Rat alpha thrombin inhibition, slope normalized to DMSO (rat α-thrombin; [8]): 90.1 and 101.9 and 101.4
Rat alpha thrombin inhibition, slope normalized to DMSO (rat α-thrombin; [9]): 54.3 and 44.0 and 44.2
Rat alpha thrombin inhibition, slope normalized to DMSO (rat α-thrombin; [10]): 98.8 and 105.1 and 93.8
Rat alpha thrombin inhibition, slope normalized to DMSO (rat α-thrombin; [11]): 96.7 and 81.8 and 91.8
Rat alpha thrombin inhibition, slope normalized to DMSO (rat α-thrombin; [12]): 6.5 and 0.4 and 5.6
Rat alpha thrombin inhibition, slope normalized to DMSO (rat α-thrombin; [13]): 104.2 and 96.1 and 93.1
Rat alpha thrombin inhibition, slope normalized to DMSO (rat α-thrombin; [14]): 7.9 and 9.5 and 5.7
Rat alpha thrombin inhibition, slope normalized to DMSO (rat α-thrombin; [15]): 106.7 and 100.9 and 91.0
Rat alpha thrombin inhibition, slope normalized to DMSO (rat α-thrombin; [16]): 38.3 and 34.0 and 35.5
Rat alpha thrombin inhibition, slope normalized to DMSO (rat α-thrombin; [17]): 98.1 and 100.4 and 100.7
Rat alpha thrombin inhibition, slope normalized to DMSO (rat α-thrombin; [18]): 84.8 and 84.4 and 72.7
Rat alpha thrombin inhibition, slope normalized to DMSO (rat α-thrombin; [19]): 0.8 and 7.3 and 2.5
Rat alpha thrombin inhibition, slope normalized to DMSO (rat α-thrombin; [20]): 104.0 and 93.5 and 94.8
Rat alpha thrombin inhibition, slope normalized to DMSO (rat α-thrombin; [21]): 7.5 and 8.8 and 7.9
Rat alpha thrombin inhibition, slope normalized to DMSO (rat α-thrombin; [22]): 97.9 and 91.4 and 101.5
Rat alpha thrombin inhibition, slope normalized to DMSO (rat α-thrombin; [23]): 26.2 and 23.7 and 23.1
Rat alpha thrombin inhibition, slope normalized to DMSO (rat α-thrombin; [24]): 96.9 and 98.1 and 96.1
Rat alpha thrombin inhibition, slope normalized to DMSO (rat α-thrombin; [25]): 69.5 and 66.8
IC50 (rat α-thrombin; single replicates R1-R3, read-out: Rat alpha thrombin inhibition, IC50): 215 nM and 179 nM and 168 nM
Compound: O=C1C[C@H]2CCCN2C(=O)[C@H](Cc2ccccc2)NC(=O)[C@@H](NC(=O)c2ccc(Cl)s2)CCCC=CCCCN1 [compound 42]
Ki (human α-thrombin; single replicates R1-R3, read-out: Human alpha thrombin inhibition, Ki): 108 nM (2×) and 396 nM (2×) and 459 nM (2×)
Ki (rat α-thrombin; single replicates R1-R3, read-out: Rat alpha thrombin inhibition, Ki): 119 nM (2×) and 98.9 nM (2×) and 92.9 nM (2×)
